The results in this text go back to patent US20060166933A1, “Novel 2H-chromene derivatives as selective estrogen receptor modulators” (priority 2004, published 2006).

Assay [1] has as its target T1, human estrogen receptor α (Homo sapiens, UniProt P03372).
T1 construct: purchased Panvera
T1 sequence (P03372 1-595): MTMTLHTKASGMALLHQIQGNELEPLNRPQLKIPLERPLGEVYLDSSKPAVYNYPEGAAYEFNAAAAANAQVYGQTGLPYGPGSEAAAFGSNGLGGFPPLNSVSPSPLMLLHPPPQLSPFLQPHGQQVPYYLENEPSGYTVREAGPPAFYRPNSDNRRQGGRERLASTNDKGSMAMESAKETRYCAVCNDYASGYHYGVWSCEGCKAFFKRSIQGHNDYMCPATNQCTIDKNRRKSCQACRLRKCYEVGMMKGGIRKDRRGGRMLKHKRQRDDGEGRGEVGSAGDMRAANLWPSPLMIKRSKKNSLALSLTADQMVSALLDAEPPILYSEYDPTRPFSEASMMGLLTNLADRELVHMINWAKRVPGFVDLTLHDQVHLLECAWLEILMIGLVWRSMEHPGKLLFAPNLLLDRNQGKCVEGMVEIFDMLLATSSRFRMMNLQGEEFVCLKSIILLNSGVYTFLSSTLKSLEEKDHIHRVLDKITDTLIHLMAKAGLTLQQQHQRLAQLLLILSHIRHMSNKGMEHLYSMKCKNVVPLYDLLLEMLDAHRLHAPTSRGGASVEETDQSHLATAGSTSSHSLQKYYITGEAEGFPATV
Put plainly: Estrogen Receptor α Flash Plate Assay (binding of radiolabeled estrogen). Particulars: radiolabeled estrogen 0.5 nM, FlashPlate, 1 h room temperature; read-out: ER-α Binding. Here is the method:
Estrogen Receptor α Flash Plate Assay
This assay monitors binding of radiolabeled estrogen to the estrogen receptor. It is performed on a BioMek 2000 (Beckman). Plates are read in a scintillation counter (Packard TopCount), with decreased counts an indication of binding of a compound to the receptor. The assay was run according to the procedure described by Allan, et al., Anal. Biochem. (1999), 275(2), 243-247.
On day one, 100 μL of Estrogen Screening Buffer (ESB, Panvera) containing 5 mM dithiothreitol (DTT, Panvera), 0.5 μg mouse anti-estrogen receptor monoclonal antibody (SRA-1010, Stressgen) and 50 ng purified human estrogen receptor a (Panvera) were added to each well of a 96 well FlashPlate Plus plate crosslinked with goat anti-mouse antibodies (NEN Life Sciences). The plate was sealed and incubated at 4° C. overnight.
On day two, each well was washed three times with 200 μL PBS, pH 7.2, at room temperature. To each well was then added 98 μL radiolabeled estrogen (0.5 nM, which equals 6 nCi for a 120 Ci/mmol batch, Amersham), diluted in ESB and 5 mM dithiothreitol (DTT). To individual wells were then added 2.5 μL test compound diluted in 30% (v/v) dimethyl sulfoxide/50 mM HEPES, pH 7.5. The wells were mixed three times by aspiration, the plate sealed and incubated at room temperature for one hour. The wells were then counted for 1 min in a TopCount scintillation counter (Packard).
(§1) Representative compounds of the present invention were tested according to the procedures described in Examples 23-24, above for binding to the estrogen-α and estrogen-β receptors, with results as listed in Table 2, below.

Another assay addresses T2, hER-β (Homo sapiens, UniProt Q92731).
T2 construct: purchased Panvera
Put plainly: Estrogen Receptor β Fluorescence Polarization Assay (Fluormone ES2 displacement). The conditions noted are these: Fluormone ES2, 1 h room temperature, read-out: ER β-Binding.
Source text: Estrogen Receptor β Fluorescence Polarization Assay
This assay monitors binding of a fluorescent analog of estrogen (Fluormone ES2, Panvera) to the estrogen receptor. Plates are read in a fluorometer that can be set to polarization mode. A decrease in […] relative to vehicle control is an indication of binding of a compound to the receptor.
It is crucial to avoid introduction of air bubbles into the reaction in each well of the 96 well plate throughout this procedure. (Bubbles on the surface of the reaction disrupt light flow, affecting the polarization reading.) However, it is also crucial to effectively mix the reaction components upon addition to the well.
On ice, a 2× standard mixture of Assay Buffer (Panvera), 10 nM DTT and 40 nM ES2 was prepared. On ice, a 2× reaction mixture of Assay Buffer (Panvera), and 20 nM hER-β (Panvera) and 40 nM ES2 was also prepared.
Dilutions of test compound were prepared in 30% (v/v) dimethyl sulfoxide/50 mM HEPES, pH 7.5. At this point, the dilutions were 40× the final required concentration.
The standard mixture at 50 μL was then added to each well. The reaction mixture at 48 μL was added to all wells. The compound dilution at 2.5 μL was added to the appropriate wells. The reaction mixtures were mixed using a manual pipette, a roll of aluminum foil adhesive cover was placed on the plate and the plate incubated at room temperature for 1 hour.
Each well on the plate was then read in an LjL Analyst with an excitation wavelength of […] and an emission wavelength of 538.
as §1
For orientation: Fluorescence polarisation rises when a labelled molecule tumbles more slowly, as on binding a larger partner.

A value given as a limit tells only on which side of the number the result lay.

T2 sequence (Q92731 whole entry): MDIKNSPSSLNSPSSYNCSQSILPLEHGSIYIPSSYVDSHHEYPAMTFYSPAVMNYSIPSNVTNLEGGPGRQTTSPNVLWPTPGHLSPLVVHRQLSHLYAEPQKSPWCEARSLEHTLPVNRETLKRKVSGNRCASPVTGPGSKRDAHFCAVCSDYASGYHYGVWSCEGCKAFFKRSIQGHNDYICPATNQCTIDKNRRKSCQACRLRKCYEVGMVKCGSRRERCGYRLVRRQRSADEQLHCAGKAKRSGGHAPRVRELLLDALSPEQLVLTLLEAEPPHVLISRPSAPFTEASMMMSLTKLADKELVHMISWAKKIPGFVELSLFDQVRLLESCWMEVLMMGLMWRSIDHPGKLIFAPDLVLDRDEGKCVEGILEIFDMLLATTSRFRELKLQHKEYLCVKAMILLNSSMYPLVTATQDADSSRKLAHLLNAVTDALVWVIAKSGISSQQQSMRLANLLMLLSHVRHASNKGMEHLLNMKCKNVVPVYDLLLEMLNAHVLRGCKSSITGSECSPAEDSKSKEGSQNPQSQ

For the compound “4-(2-Hydroxy-ethyl)-2-[4-(2-piperidin-1-yl-ethoxy)-phenyl]-2H-chromen-7-ol [ID No. 6]”, the IC50 (in assay [1]; at hER-β) was 500 nM each time.

“4-Methyl-2-[4-(2-piperidin-1-yl-ethoxy)-phenyl]-2-H-chromen-7-ol [ID No. 4]”: the IC50 was 2200 nM in assay [1] and > 10000 nM on hER-β.

For `CC1=C(COCC[Si](C)(C)C)[C@H](c2ccc(OCCN3CCCCC3)cc2)Oc2cc(O)ccc21` (single isomer, unassigned) [compound 3], the figures for the IC50 (in assay [1]; on hER-β) were 180 nM and > 10000 nM, respectively.

Consider `OCCC1=CC(c2ccc(OCCN3CCCCC3)cc2)Oc2cc(O)ccc21` (stereo not drawn) [compound 6], for which the IC50 (in assay [1]; on hER-β) was > 10000 nM in each case.

With `Oc1ccc2c(c1)OC(c1ccc(OCCN3CCCCC3)cc1)C1=C2CCCCC1` (stereo not drawn) [compound 9], the IC50 in assay [1] is 59 nM; at hER-β, 690 nM.

As to `Oc1ccc2c(c1)OC(c1ccc(OCCN3CCCCC3)cc1)C=C2C1CCCC1` (stereo not drawn) [compound 10], the IC50 in assay [1] is 180 nM; on hER-β, 500 nM.
